Patent US9724352B2, “Pyrrolo[2,1-F[1,2,4]triazine compounds, preparation methods and applications thereof” (Shanghai Institute of Materia Medica, Chinese Academy of …, priority 2012, dated 2017)

How the values were obtained:
PI3Kα = PI3Kα (Homo sapiens (Human), UniProt P42336); experiment: Inhibition on PI3K kinase activity (Kinase-Glo Plus luminescent assay); format: biochemical; conditions: 2 μM ATP, 1 hour at room temperature
Description: The activity of purified kinase was detected with Kinase-Glo® Plus kinase luminescent assay by measuring the amount of the remaining […] in the solution after the kinase reaction was completed. […] After reaction was performed for 1 hour at room temperature, 10 μL of Kinase Glo-Plus mixture was added and incubated for 1 hour to quench the reaction.

[1] = tested on: human rhabdomyosarcoma Rh30 cells; experiment: Proliferation of Rh30 cells (sulforhodamine B); format: cell-based; conditions: Homo sapiens, Rh30, 72 h; read-out: IC50 against proliferation of Rh30 cells
Procedure, shortened: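 Rh30 cells (3000/well) were treated after adherence with compound at 10, 3, 1, 0.3 or 0.1 μM for 72 h. TCA-fixed cells were stained with sulforhodamine B, dye solubilised in Tris buffer and OD read at 560 nm.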

[2] = tested on: PI3K signaling in human rhabdomyosarcoma Rh30 cells; experiment: PI3K signaling after IGF-1 stimulation (Western blot), Rh30; format: cell-based; conditions: compound 1 h, IGF-1 10 minutes
Description: (§1) Rh30 and U87MG cells were seeded in 12-well plates at 2×10^5 cells/well. On the next day, cells were incubated in fresh serum-free culture media subjected to starvation for 24 hours. Cells were then treated with different concentrations of compound I-33 for 1 h. After stimulated with IGF-1 for 10 minutes, the lysed cells were collected, and 4×SDS loading buffer [200 mM Tris.Cl (pH 6.8), 400 mM DTT, 8% SDS (sodium dodecyl sulfate), 0.4% bromophenol blue, 40% glycerol] was added. The cell lysates were boiled for 10 minutes. Aliquot was loaded on polyacrylamide gel and electrophoresis was performed in Tris-glycine electrophoresis buffer (25 mM Tris, 250 mM glycine, 0.1% SDS) at 80-100 V for 2-2.5 hours. The proteins were transformed from gel to nitrocellulose filter membrane by using semidry method. The filter membrane was blocked with blocking solution containing 5% skim milk powder (5% skim milk powder, 20 mM Tris-HCl (pH 7.2-7.4), 150 mM NaCl, 0.1% (v/v) Tween20) in a shaker at room temperature for 2 hours. Then specific primary antibody was added and hybridized at 4° C. overnight. The membrane was washed by washing buffer [20 mM Tris-HCl (pH 7.2-7.4), 150 mM NaCl, 0.1% (v/v) Tween20] for three times at room temperature, 15 minutes each time. […]

[3] = tested on: PI3K signaling in human glioma U87MG cells; experiment: PI3K signaling after IGF-1 stimulation (Western blot), U87MG; format: cell-based; conditions: compound 1 h, IGF-1 10 minutes
Description: as §1

COLO680N = experiment: Proliferation of human esophagus cancer cells; format: cell-based; conditions: COLO-680N
Description: (§2) Compounds BYL719 (shown below), CYH33 (compound I-33) and I-27 were selected to test their activity on the proliferation of 11 species of human esophagus cancer cells.
(§3) The results reported in FIG. 3 were the average GI50 value and SD value of three experiments. The results were arranged according to the GI50 value of CYH33.

Detroit 562 = experiment: Proliferation of human esophagus cancer cells; format: cell-based
Description: as §2, §3

KYSE140 = experiment: Proliferation of human esophagus cancer cells; format: cell-based
Description: as §2, §3

KYSE150 = experiment: Proliferation of human esophagus cancer cells; format: cell-based
Description: as §2, §3

KYSE180 = experiment: Proliferation of human esophagus cancer cells; format: cell-based
Description: as §2, §3

KYSE2 = experiment: Proliferation of human esophagus cancer cells; format: cell-based
Description: as §2, §3

KYSE30 = experiment: Proliferation of human esophagus cancer cells; format: cell-based
Description: as §2, §3

KYSE410 = experiment: Proliferation of human esophagus cancer cells; format: cell-based
Description: as §2, §3

KYSE450 = experiment: Proliferation of human esophagus cancer cells; format: cell-based
Description: as §2, §3

KYSE510 = experiment: Proliferation of human esophagus cancer cells; format: cell-based
Description: as §2, §3

KYSE70 = experiment: Proliferation of human esophagus cancer cells; format: cell-based
Description: as §2, §3

Chain of PI3Kα (P42336 whole entry): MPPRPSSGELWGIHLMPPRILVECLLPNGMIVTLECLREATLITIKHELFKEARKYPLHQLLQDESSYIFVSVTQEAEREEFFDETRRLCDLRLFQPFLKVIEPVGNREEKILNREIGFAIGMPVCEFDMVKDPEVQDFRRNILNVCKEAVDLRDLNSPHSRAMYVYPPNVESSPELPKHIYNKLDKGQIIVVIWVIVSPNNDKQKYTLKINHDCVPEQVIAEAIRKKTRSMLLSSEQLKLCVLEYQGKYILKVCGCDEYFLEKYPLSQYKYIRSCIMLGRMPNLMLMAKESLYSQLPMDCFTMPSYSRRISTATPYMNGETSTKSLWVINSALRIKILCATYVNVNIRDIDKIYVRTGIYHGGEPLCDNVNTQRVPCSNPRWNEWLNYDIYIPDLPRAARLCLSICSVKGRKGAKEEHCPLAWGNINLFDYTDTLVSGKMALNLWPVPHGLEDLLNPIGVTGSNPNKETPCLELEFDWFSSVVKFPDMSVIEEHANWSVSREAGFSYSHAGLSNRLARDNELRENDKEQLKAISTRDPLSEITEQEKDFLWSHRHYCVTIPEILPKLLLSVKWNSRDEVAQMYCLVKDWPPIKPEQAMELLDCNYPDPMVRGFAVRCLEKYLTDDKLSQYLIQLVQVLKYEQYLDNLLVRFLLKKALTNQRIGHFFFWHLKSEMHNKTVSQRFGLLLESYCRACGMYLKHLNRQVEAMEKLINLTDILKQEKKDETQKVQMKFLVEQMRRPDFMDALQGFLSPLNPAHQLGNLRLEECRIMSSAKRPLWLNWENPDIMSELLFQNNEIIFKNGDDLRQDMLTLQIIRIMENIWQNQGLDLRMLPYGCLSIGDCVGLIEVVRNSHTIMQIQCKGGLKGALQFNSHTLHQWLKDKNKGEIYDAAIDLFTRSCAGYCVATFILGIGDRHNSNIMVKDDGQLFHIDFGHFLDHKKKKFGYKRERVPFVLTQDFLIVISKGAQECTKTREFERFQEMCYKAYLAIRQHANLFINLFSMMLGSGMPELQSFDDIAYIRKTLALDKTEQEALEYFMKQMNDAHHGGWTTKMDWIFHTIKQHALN
Chain of PI3Kα (P27986 whole entry partner): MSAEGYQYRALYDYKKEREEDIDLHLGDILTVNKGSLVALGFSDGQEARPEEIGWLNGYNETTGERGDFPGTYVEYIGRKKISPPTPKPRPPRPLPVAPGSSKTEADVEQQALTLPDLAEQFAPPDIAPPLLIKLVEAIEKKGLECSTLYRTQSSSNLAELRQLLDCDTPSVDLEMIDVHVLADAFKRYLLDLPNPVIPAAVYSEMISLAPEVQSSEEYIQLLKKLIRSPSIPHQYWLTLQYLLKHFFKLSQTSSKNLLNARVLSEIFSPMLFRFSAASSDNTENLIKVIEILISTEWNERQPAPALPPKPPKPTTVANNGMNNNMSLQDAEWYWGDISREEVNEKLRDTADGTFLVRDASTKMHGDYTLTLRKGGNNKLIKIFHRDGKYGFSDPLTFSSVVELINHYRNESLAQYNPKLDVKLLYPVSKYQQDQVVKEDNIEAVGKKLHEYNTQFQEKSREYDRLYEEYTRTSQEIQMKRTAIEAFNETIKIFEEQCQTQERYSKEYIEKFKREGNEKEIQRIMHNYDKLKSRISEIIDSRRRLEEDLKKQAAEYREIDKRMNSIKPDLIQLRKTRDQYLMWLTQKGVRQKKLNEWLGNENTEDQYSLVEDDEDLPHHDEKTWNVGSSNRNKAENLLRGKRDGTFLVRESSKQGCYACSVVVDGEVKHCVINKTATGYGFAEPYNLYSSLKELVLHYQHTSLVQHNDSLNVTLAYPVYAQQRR

COC(=O)Nc1cc(C(F)(F)F)c(-c2nc(N3CCOCC3)c3cc(CN4CCN(S(C)(=O)=O)CC4)cn3n2)cn1 [Compound I-33, Methyl (5-(6-((4-(methylsulfonyl)piperazin-1-yl)methyl)-4-morpholinopyrrolo[2,1-f][1,2,4]triazin-2-yl)-4-(trifluoromethyl)pyridin-2-yl)carbamate]
IC50 (PI3Kα): 2.84 nM | IC50 [1]: 2520 nM | transduction of PI3K signaling [2]: significantly inhibited | transduction of PI3K signaling [3]: significantly inhibited | GI50 (COLO680N; 1st experiment): 743 nM | GI50 (COLO680N; 2nd experiment): 530 nM | GI50 (COLO680N; 3rd experiment): 701 nM | GI50 (COLO680N; mean of three experiments): 658 nM | GI50 (Detroit 562; Detroit 562, Detroit 562, 1st experiment): 718 nM | GI50 (Detroit 562; Detroit 562, Detroit 562, 2nd experiment): 707 nM | GI50 (Detroit 562; Detroit 562, Detroit 562, 3rd experiment): 769 nM | GI50 (Detroit 562; Detroit 562, Detroit 562, mean of three experiments): 731 nM | GI50 (KYSE140; KYSE-140, KYSE140, 1st experiment): 484 nM | GI50 (KYSE140; KYSE-140, KYSE140, 2nd experiment): 804 nM | GI50 (KYSE140; KYSE-140, KYSE140, 3rd experiment): 492 nM | GI50 (KYSE140; KYSE-140, KYSE140, mean of three experiments): 593 nM | GI50 (KYSE150; KYSE-150, KYSE150, 1st experiment): 40 nM | GI50 (KYSE150; KYSE-150, KYSE150, 2nd experiment): 62 nM | GI50 (KYSE150; KYSE-150, KYSE150, 3rd experiment): 38 nM | GI50 (KYSE150; KYSE-150, KYSE150, mean of three experiments): 47 nM | GI50 (KYSE180; KYSE-180, KYSE180, 1st experiment): 1 nM | GI50 (KYSE180; KYSE-180, KYSE180, 2nd experiment): 11 nM | GI50 (KYSE180; KYSE-180, KYSE180, 3rd experiment): 16 nM | GI50 (KYSE180; KYSE-180, KYSE180, mean of three experiments): 9 nM | GI50 (KYSE2; KYSE2, 1st experiment): 24 nM | GI50 (KYSE2; KYSE2, 2nd experiment): 28 nM | GI50 (KYSE2; KYSE2, 3rd experiment): 97 nM | GI50 (KYSE2; KYSE2, mean of three experiments): 50 nM | GI50 (KYSE30; KYSE-30, KYSE30, 1st experiment): 2640 nM | GI50 (KYSE30; KYSE-30, KYSE30, 2nd experiment): 566 nM | GI50 (KYSE30; KYSE-30, KYSE30, 3rd experiment): 531 nM | GI50 (KYSE30; KYSE-30, KYSE30, mean of three experiments): 1250 nM | GI50 (KYSE410; KYSE-410, KYSE410, 1st experiment): 146 nM | GI50 (KYSE410; KYSE-410, KYSE410, 2nd experiment): 50 nM | GI50 (KYSE410; KYSE-410, KYSE410, 3rd experiment): 88 nM | GI50 (KYSE410; KYSE-410, KYSE410, mean of three experiments): 95 nM | GI50 (KYSE450; KYSE-450, KYSE450, 1st experiment): 1380 nM | GI50 (KYSE450; KYSE-450, KYSE450, 2nd experiment): 803 nM | GI50 (KYSE450; KYSE-450, KYSE450, 3rd experiment): 938 nM | GI50 (KYSE450; KYSE-450, KYSE450, mean of three experiments): 1040 nM | GI50 (KYSE510; KYSE-510, KYSE510, 1st experiment): 55 nM | GI50 (KYSE510; KYSE-510, KYSE510, 2nd experiment): 6 nM | GI50 (KYSE510; KYSE-510, KYSE510, 3rd experiment): 38 nM | GI50 (KYSE510; KYSE-510, KYSE510, mean of three experiments): 33 nM | GI50 (KYSE70; KYSE-70, KYSE70, 1st experiment): 33 nM | GI50 (KYSE70; KYSE-70, KYSE70, 2nd experiment): 27 nM | GI50 (KYSE70; KYSE-70, KYSE70, 3rd experiment): 29 nM | GI50 (KYSE70; KYSE-70, KYSE70, mean of three experiments): 30 nM
